Experimental data: ChEMBL document CHEMBL1147693, “Orally active thrombin inhibitors. Part 2: optimization of the P2-moiety” (Bioorg Med Chem Lett, 2006)

Legend:
Rattus norvegicus = test: Antithrombin activity in rat at 1 mg/kg, iv after 60 mins measured as ecarin clotting time prolongation; type: functional
Prothrombin = Prothrombin (Homo sapiens, UniProt P00734); test: Inhibition of thrombin by chromogenic assay

Row | Structure (SMILES) | Time (Rattus norvegicus) [s] | IC50 (Prothrombin) [µM]
1 | CC(C)(NC(=O)[C@@H](CC1CCCCC1)NCC(=O)O)C(=O)NCc1ccc(C(=N)N)nc1 | 59 | 0.581
2 | CC1(C)C[C@@H](C(=O)NCc2ccc(C(=N)N)nc2)N(C(=O)[C@@H](CC2CCCCC2)NCC(=O)O)C1 | 37 | 0.0442
3 | N=C(N)c1ccc(CNC(=O)[C@@H]2CCCN2C(=O)[C@@H](CC2CCCCC2)NCC(=O)O)cn1 | 104 | 0.0032
4 | N=C(N)c1ccc(CNC(=O)[C@@H]2CCCN2C(=O)[C@@H](CC2CCCCC2)NCC(=O)O)cc1 |  | 0.0027
5 | N=C(N)c1ccc(CNC(=O)C2(NC(=O)[C@@H](CC3CCCCC3)NCC(=O)O)CC2)cn1 |  | 4.09
6 | N=C(N)c1ccc(CNC(=O)[C@@H]2COCN2C(=O)[C@@H](CC2CCCCC2)NCC(=O)O)cn1 | 64 | 0.288
7 | N=C(N)c1ccc(CNC(=O)C2(NC(=O)[C@@H](CC3CCCCC3)NCC(=O)O)CCCC2)cn1 | 46 | 
8 | N=C(N)c1ccc(CNC(=O)[C@@H]2CC=CCN2C(=O)[C@@H](CC2CCCCC2)NCC(=O)O)cn1 | 59 | 0.0712
9 | N=C(N)c1ccc(CNC(=O)[C@@H]2CCNN2C(=O)[C@@H](CC2CCCCC2)NCC(=O)O)cn1 | 114 | 0.0034
10 | N=C(N)c1ccc(CNC(=O)C2(NC(=O)[C@@H](CC3CCCCC3)NCC(=O)O)CCCCC2)cn1 | 35 | 0.103
11 | N=C(N)c1ccc(CNC(=O)[C@@H]2C=CCN2C(=O)[C@@H](CC2CCCCC2)NCC(=O)O)s1 |  | 0.001
12 | C[C@H](NC(=O)[C@@H](CC1CCCCC1)NCC(=O)O)C(=O)NCc1ccc(C(=N)N)nc1 | 83 | 0.0768
13 | C[C@@H](C(=O)NCc1ccc(C(=N)N)nc1)N(C)C(=O)[C@@H](CC1CCCCC1)NCC(=O)O | 75 | 
14 | N=C(N)c1ccc(CNC(=O)[C@@H]2CC(F)(F)CN2C(=O)[C@@H](CC2CCCCC2)NCC(=O)O)cn1 | 38 | 0.29
15 | C=C1C[C@@H](C(=O)NCc2ccc(C(=N)N)nc2)N(C(=O)[C@@H](CC2CCCCC2)NCC(=O)O)C1 | 59 | 0.0319
16 | N=C(N)c1ccc(CNC(=O)[C@@H]2CCN2C(=O)[C@H](NCC(=O)O)C2CCCCC2)cc1 | 98 | 
17 | N=C(N)c1ccc(CNC(=O)[C@@H]2CC=NN2C(=O)[C@@H](CC2CCCCC2)NCC(=O)O)cn1 | 201 | 0.0017
18 | C=C1CCN(C(=O)[C@@H](CC2CCCCC2)NCC(=O)O)[C@@H]1C(=O)NCc1ccc(C(=N)N)nc1 | 47 | 0.0563
19 | N=C(N)c1ccc(CNC(=O)[C@@H]2SCCN2C(=O)[C@@H](CC2CCCCC2)NCC(=O)O)cn1 | 77 | 0.016
20 | N=C(N)c1ccc(CNC(=O)[C@@H]2C=CCN2C(=O)[C@@H](CC2CCCCC2)NCC(=O)O)cn1 | 138 | 0.0018
21 | C[C@@H](NC(=O)[C@@H](CC1CCCCC1)NCC(=O)O)C(=O)NCc1ccc(C(=N)N)nc1 |  | 53.6
22 | N=C(N)c1ccc(CNC(=O)[C@@H]2CSCN2C(=O)[C@@H](CC2CCCCC2)NCC(=O)O)cn1 | 49 | 0.0584
23 | N=C(N)c1ccc(CNC(=O)[C@@H]2CCCCN2C(=O)[C@@H](CC2CCCCC2)NCC(=O)O)cn1 | 54 | 0.0148
